The values below come from PMC10721786, “Development of a potent benzonitrile-based inhibitor of glutaminyl-peptide cyclotransferase-like protein (QPCTL) with antitumor efficacy” (Signal Transduction and Targeted Therapy, 2023).

Experiment [1] addresses T1, QPCTL (Homo sapiens, UniProt Q9NXS2).
T1 construct: made in house; host or cells: Escherichia coli BL21 (DE3)
Briefly: Enzyme activity assay (fluorescent, H-Gln-AMC / PGPEP I coupled) against QPCTL. Type of experiment: biochemical. As to conditions: mean ± SD of three independent experiments. The procedure: The DNA with sequence coding for the human glutaminyl-peptide cyclotransferase-like protein (nucleotide entry: NP_060129) was synthesized and then inserted into the pGEX-4T-2 vector. The vector was transformed into Escherichia coli BL21 (DE3) competent cells (Tiangen Biotech, Cat. # CB105). The bacteria were grown in LB media containing ampicillin (100 μg/ mL) at 37 °C until the cell density reached an OD600 of 0.8- 0.9. The cultures were induced with 1 mM IPTG for 8- 10 h at 20 °C. The bacteria were collected and resuspended in 50 mL PBS, and 1% Triton X-100 (v/v), 1% β-mercaptoethanol (v/v), PMSF (final concentration 1 mM) were added into the mixed solution. The bacterial cells were then harvested by centrifugation (4,700 g for 30 min at 4 °C) followed by ultrasonic breaking. The resulted solution was clarified by centrifugation at 13,800 g for 30 min. GST-beads was suspended to the supernatant and was gently shook for 1 hour to bind the protein. The resulted protein solution was centrifuged at 1,500 g for 5 min and the supernatant was discarded. At least 10-fold the volume of PBS was added to the pellet to sufficiently suspend the beads in the solution. Then the solution was clarified by centrifugation at 1,500 g for 5 min and the supernatant was discarded. The above steps were repeated twice. 1 mL GST elution buffer was added to the pellet and the solution was shaken gently for 30 min following by centrifugation at 1,500 g for 5 min. The supernatant was collected and was eluted with GST elution buffer at least twice. The supernatant was loaded onto SDS-PAGE electrophoresis to detect protein purity. The protein was stored in 20% glycerol at -80 °C.
Enzyme activity was measured by conversion of glutamine-4-amino-7-methylcounarine (H-Gln-AMC) to pyroglutamyl-AMC, which is subsequently a specific substrate for PGPEP I, releasing free AMC which can be fluorescently detected. For typical inhibition assay, 12.5 μL QPCTL protein (7 ng/μL) or QPCT protein (7 ng/μL) (MedChemExpress, Cat. #HY-P76560) and 2.5 μL of tested compounds with different concentrations were pipetted into a 384-well plate on ice. The reaction system was reacted in a shaker at 37 °C, 100 rpm for 10 minutes. Next, 10 μL fluorescent substrate H-Gln-AMC (500 μM) was added and incubated in 100 rpm for 20 min at 37 °C. […] Once done, the plate was moved over to TECAN Infinite 200PRO plate-reader to monitor and record the maximum fluorescence at 380nm excitation/ 460nm emission. The fluorescent signal value obtained was analyzed by Graphpad Prism 8.0 to obtain the inhibitory rate and IC50 of the compound.

In experiment [2] the test system is pGlu-CD47. Briefly: Flow cytometry of pGlu-CD47 (hCD47-CC2C6 binding) in HEK293T cells. As to conditions: for IC50: Homo sapiens, HEK-293T, treatment 48 h, read-out: IC50, dose-dependent inhibition of pGlu-CD47. It is filed as cell-based, human. Here is the method: (§1) Binding to cell surface CD47 was assessed by staining cells with fluorochrome-labeled antibodies clone CC2C6 (BioLegend, Cat. # 323102) and B6H12 (Abcam, Cat. # ab134485) to human CD47 at a dilution of 1:100 in PBS containing 1% FBS (FACS buffer) for 30 min on ice, while protected from light. SIRPα binding to CD47 was assessed by incubating cells with PE labeled recombinant human SIRPα/ CD172α Protein, Fc tag (ACRO Biosystems, Cat. # SIA-HP252) or PE labeled mouse SIRPα Protein, His tag (ACRO Biosystems, Cat. # SIA-MP2H6) for 1 hour on ice, while protected from light.
A general note: A flow cytometer gives signals particle by particle.

Experiment [3] deals with pGlu-CD47. Briefly: Flow cytometry of pGlu-CD47 (hCD47-CC2C6 binding) in Raji cells. It is filed as cell-based, human. As to conditions: 100 nM, 48 h. Here is the method: as §1
Experiment [4] deals with CD47/SIRPα. Briefly: Cell surface binding of human or mouse SIRPα protein to tumor cells (Raji, B16F10), flow cytometry. Type of experiment: cell-based. Here is the method: as §1
In experiment [5] the test system is CD47. As to the kind of experiment: Overall cell surface CD47 (hCD47-B6H12 binding) in HEK293T and Raji cells. Type of experiment: cell-based, human. As to conditions: 100 nM, 48 h. The procedure:
as §1

In experiment [6] the test system is pGlu-CD47. Briefly: hCD47-CC2C6 binding to various cancer cells (H929, HCT116, Huh7, SKOV3, SU-DHL-8, T24, H1299, MCF-7). Type of experiment: cell-based, human. As to conditions: 500 nM, 48 h. Here is the method:
as §1

Each structure is given as a SMILES string.

T1 sequence (Q9NXS2 whole entry): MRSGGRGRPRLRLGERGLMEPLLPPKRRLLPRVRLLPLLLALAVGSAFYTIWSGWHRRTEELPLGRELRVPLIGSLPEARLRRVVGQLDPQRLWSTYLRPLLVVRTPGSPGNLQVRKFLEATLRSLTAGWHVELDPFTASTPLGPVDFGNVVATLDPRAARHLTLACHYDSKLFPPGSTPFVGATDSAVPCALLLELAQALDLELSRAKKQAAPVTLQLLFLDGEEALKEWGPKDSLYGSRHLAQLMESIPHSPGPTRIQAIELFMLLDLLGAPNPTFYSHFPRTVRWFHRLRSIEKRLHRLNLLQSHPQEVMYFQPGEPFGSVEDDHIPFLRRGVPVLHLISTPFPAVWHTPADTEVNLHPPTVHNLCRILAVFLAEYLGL

For orientation: IC50 means the concentration that inhibits the measured activity by half. In the case of `Cn1cnnc1C1CCN(c2c(C#N)cccc2-c2ccc(N)nc2)CC1` [Compound 12], the IC50 in experiment [1] amounted to 471 ± 244 nM. As for `Cc1ccncc1-c1cccc(C#N)c1N1CCC(c2nncn2C)CC1` [Compound 18], the IC50 in experiment [1] was 74.5 ± 13.4 nM. Consider `Cn1cnnc1C1CCN(c2ccccc2C#N)CC1` [Compound 8], for which, in experiment [1], the IC50 was greater than 1000 nM. `Cn1cnnc1C1CCN(c2c(C#N)cccc2-c2ccc(C(F)(F)F)nc2)CC1` [Compound 10]: the IC50 in experiment [1] is greater than 1000 nM.

`Cn1cnnc1C1CCN(c2c(C#N)cccc2-c2cncc(F)c2)CC1` [Compound 14] displayed an IC50 in experiment [1] of 73.6 ± 11.5 nM.

As for `Cn1cnnc1C1CCN(c2c(C#N)cccc2-c2ccncc2)CC1` [Compound 7], the IC50 in experiment [1] was greater than 1000 nM. The molecule `Cn1cnnc1C1CCN(c2c(C#N)cccc2-c2cnccc2C(F)(F)F)CC1` [Compound 17] gave an IC50 in experiment [1] of 53.5 ± 11.8 nM.

In the case of `Cn1cnnc1C1CCN(c2c(C#N)cccc2-c2ccc(F)nc2)CC1` [QP5020], the “inhibitory effect on CD47 pyroglutamation compared to SEN177 and PQ912” value in experiment [2] (100 nM, 48 h) is reported as “superior inhibitory effects”; in experiment [3], “superior inhibitory effects”. The IC50 in experiment [2] is 6.4 ± 0.7 nM. The “binding of human or mouse SIRPα protein to cell surface” value in experiment [4] is “significantly reduced”. In addition, the “overall cell surface levels of CD47” value in experiment [5] is “did not alter”. In experiment [6], the “CD47 pyroglutamation in various types of cancer cells” value was “significantly attenuated”.

Consider `Cn1cnnc1C1CCN(c2c(C#N)cccc2-c2cc[nH]c(=O)c2)CC1` [Compound 22], for which the midpoint of inhibition in experiment [1], the IC50, lay at 17.6 ± 6.2 nM. Take `Cn1cnnc1C1CCN(c2c(C#N)cccc2-c2ccc(C#N)nc2)CC1` [Compound 11]: the IC50 in experiment [1] was determined as 417 ± 210 nM. `CC(C)n1cnnc1C1CCN(c2c(C#N)cccc2-c2ccc(F)nc2)CC1` [Compound 27]: the IC50 in experiment [1] was greater than 1000 nM. In experiment [1], `Cn1cnnc1C1CCN(c2c(C#N)cccc2-c2ccccc2)CC1` [Compound 6] registered an IC50 greater than 1000 nM. As for `N#Cc1cccc(-c2ccc(F)nc2)c1N1CCC(c2cnc[nH]2)CC1` [Compound 29], the IC50 in experiment [1] was greater than 1000 nM. The same measure, in the same setting: under `Cn1cnnc1C1CCN(c2c(C#N)cccc2-c2cncc(C#N)c2)CC1` [Compound 15] stands 124 ± 9.8 nM. Take `Cn1cnnc1C1CCN(c2c(C#N)cccc2-c2cccnc2)CC1` [Compound 5]: in experiment [1], the IC50 was 56.5 ± 11.3 nM. In turn, `Cn1cnnc1C1CCN(c2c(C#N)cccc2-c2cncnc2)CC1` [Compound 9] registered an IC50 in experiment [1] of 76.5 ± 21.3 nM. On the same count and under the same terms, under `COc1ccncc1-c1cccc(C#N)c1N1CCC(c2nncn2C)CC1` [Compound 16] stands greater than 1000 nM. Molecule `Cn1cnnc1C1CCN(c2c(C#N)cccc2-c2ccc(O)nc2)CC1` [Compound 20] showed an IC50 in experiment [1] of 187 ± 20.8 nM. On the same count and under the same terms, under `Cn1cnnc1C1CCN(c2c(C#N)cccc2-c2ccoc2)CC1` [Compound 24] stands 135 ± 64.3 nM.

With `CCCOc1ccc([C@H]2CNC(=O)N2c2ccc3[nH]cnc3c2)cc1` [PQ912, reference compound], the half-maximal inhibitory concentration (IC50) is 51.8 ± 6.2 nM in experiment [1] and 988 ± 409 nM in experiment [2]. Turning to `Cc1nnc(C2CCN(c3c(C#N)cccc3-c3ccc(F)nc3)CC2)n1C` [Compound 26], 94.3 ± 13.9 nM corresponded to half-maximal inhibition in experiment [1] (IC50). In the case of `COc1ccc(-c2cccc(C#N)c2N2CCC(c3nncn3C)CC2)cn1` [Compound 13], the IC50 in experiment [1] came to 368 ± 82 nM. Still for that read-out and setting: the figure for `Cc1noc(C)c1-c1cccc(C#N)c1N1CCC(c2nncn2C)CC1` [Compound 25] is greater than 1000 nM; for `Cn1cnnc1C1CCN(c2c(C#N)cccc2-c2cnccc2Cl)CC1` [Compound 19] it is 105 ± 22.3 nM; for `Cn1cnnc1C1CCN(c2c(C#N)cccc2-c2ccn(C)c(=O)c2)CC1` [Compound 23] it is 19.6 ± 12.5 nM. As for `Cn1cnnc1C1CCN(c2c(C#N)cccc2-c2ccc(=O)n(C)c2)CC1` [Compound 21], the IC50 in experiment [1] came to 573 ± 85.5 nM.
